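Step 1: Grow cells in 96-well plates. Step 2: Expose to compound for 48 hours at 5 concentrations. Step 3: Interpolate endpoints linearly; if unreached, use highest concentration. At the GI50, growth is halved. The concentration for full growth arrest is given as TGI.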
Legend:
Assay in all cases: NCI-60 cell line screen, 48 h
MDA-MB-468 breast = tested on: MDA-MB-468 breast
MALME-3M melanoma = tested on: MALME-3M melanoma
DU-145 prostate = tested on: DU-145 prostate
HCC-2998 colon = tested on: HCC-2998 colon
SK-MEL-2 melanoma = tested on: SK-MEL-2 melanoma
OVCAR-5 ovarian = tested on: OVCAR-5 ovarian
HOP-62 NSCLC = tested on: HOP-62 NSCLC
MDA-MB-231 breast = tested on: MDA-MB-231 breast
OVCAR-4 ovarian = tested on: OVCAR-4 ovarian
HS 578T breast = tested on: HS 578T breast
MOLT-4 leukemia = tested on: MOLT-4 leukemia
NCI-H23 lung = tested on: NCI-H23 lung
SF-539 CNS = tested on: SF-539 CNS
SF-295 CNS = tested on: SF-295 CNS
NCI-H226 lung = tested on: NCI-H226 lung
IGROV1 ovarian = tested on: IGROV1 ovarian
HCT-15 colon = tested on: HCT-15 colon
HOP-92 NSCLC = tested on: HOP-92 NSCLC
HCT-116 colon = tested on: HCT-116 colon
TK-10 renal = tested on: TK-10 renal
SK-MEL-5 melanoma = tested on: SK-MEL-5 melanoma
UO-31 renal = tested on: UO-31 renal
SNB-75 CNS = tested on: SNB-75 CNS
NCI-H460 lung = tested on: NCI-H460 lung
NCI-H522 lung = tested on: NCI-H522 lung
EKVX NSCLC = tested on: EKVX NSCLC
KM12 colon = tested on: KM12 colon
K-562 leukemia = tested on: K-562 leukemia
MDA-MB-435 = tested on: MDA-MB-435
RXF 393 renal = tested on: RXF 393 renal
CAKI-1 renal = tested on: CAKI-1 renal
SNB-19 CNS = tested on: SNB-19 CNS
PC-3 prostate = tested on: PC-3 prostate
SK-OV-3 ovarian = tested on: SK-OV-3 ovarian
NCI/ADR-RES ovarian = tested on: NCI/ADR-RES ovarian
RPMI-8226 leukemia = tested on: RPMI-8226 leukemia
LOX IMVI melanoma = tested on: LOX IMVI melanoma
HT29 colon = tested on: HT29 colon
CCRF-CEM leukemia = tested on: CCRF-CEM leukemia
HL-60(TB) leukemia = tested on: HL-60(TB) leukemia
ACHN renal = tested on: ACHN renal
SF-268 CNS = tested on: SF-268 CNS
A498 renal = tested on: A498 renal
SR leukemia = tested on: SR leukemia
SK-MEL-28 melanoma = tested on: SK-MEL-28 melanoma
OVCAR-3 ovarian = tested on: OVCAR-3 ovarian
U251 CNS = tested on: U251 CNS
T-47D breast = tested on: T-47D breast
COLO 205 colon = tested on: COLO 205 colon
MCF7 breast = tested on: MCF7 breast
UACC-257 melanoma = tested on: UACC-257 melanoma
A549 NSCLC = tested on: A549 NSCLC
M14 melanoma = tested on: M14 melanoma
BT-549 breast = tested on: BT-549 breast
SN12C renal = tested on: SN12C renal
OVCAR-8 ovarian = tested on: OVCAR-8 ovarian
SW-620 colon = tested on: SW-620 colon
786-0 renal = tested on: 786-0 renal
UACC-62 melanoma = tested on: UACC-62 melanoma

Compound: COc1ccc(CCC2c3c(cc4c(c3OC)OCO4)CCN2C)cc1 (stereo not drawn)
- GI50 (MDA-MB-468 breast): 6.81 µM
- TGI (MDA-MB-468 breast): 21.6 µM
- GI50 (MALME-3M melanoma): 14.2 µM
- TGI (MALME-3M melanoma): 27.5 µM
- GI50 (DU-145 prostate): 20.1 µM
- TGI (DU-145 prostate): 86.2 µM
- GI50 (HCC-2998 colon): 10.7 µM
- TGI (HCC-2998 colon): 25.7 µM
- GI50 (SK-MEL-2 melanoma): 14.6 µM
- TGI (SK-MEL-2 melanoma): 36.7 µM
- GI50 (OVCAR-5 ovarian): 5.98 µM
- TGI (OVCAR-5 ovarian): 28.8 µM
- GI50 (HOP-62 NSCLC): 7.41 µM
- TGI (HOP-62 NSCLC): 46.3 µM
- GI50 (MDA-MB-231 breast): 9.13 µM
- TGI (MDA-MB-231 breast): 22.6 µM
- GI50 (OVCAR-4 ovarian): 17.2 µM
- TGI (OVCAR-4 ovarian): 99.2 µM
- GI50 (HS 578T breast): 10.4 µM
- TGI (HS 578T breast): 41.8 µM
- GI50 (MOLT-4 leukemia): 6.39 µM
- TGI (MOLT-4 leukemia): 32.8 µM
- GI50 (NCI-H23 lung): 6.56 µM
- TGI (NCI-H23 lung): 31.7 µM
- GI50 (SF-539 CNS): 4.91 µM
- TGI (SF-539 CNS): 16.8 µM
- GI50 (SF-295 CNS): 3.5 µM
- TGI (SF-295 CNS): 17.2 µM
- GI50 (NCI-H226 lung): 7.04 µM
- TGI (NCI-H226 lung): 25.6 µM
- GI50 (IGROV1 ovarian): 5.72 µM
- TGI (IGROV1 ovarian): 22.1 µM
- GI50 (HCT-15 colon): 9.8 µM
- TGI (HCT-15 colon): 34.8 µM
- GI50 (HOP-92 NSCLC): 5.16 µM
- TGI (HOP-92 NSCLC): 23.4 µM
- GI50 (HCT-116 colon): 3.35 µM
- TGI (HCT-116 colon): 13.8 µM
- GI50 (TK-10 renal): 10.6 µM
- TGI (TK-10 renal): 31.8 µM
- GI50 (SK-MEL-5 melanoma): 10.4 µM
- TGI (SK-MEL-5 melanoma): 22.2 µM
- GI50 (UO-31 renal): 8.73 µM
- TGI (UO-31 renal): 54.1 µM
- GI50 (SNB-75 CNS): 13.5 µM
- TGI (SNB-75 CNS): 70.5 µM
- GI50 (NCI-H460 lung): 4.76 µM
- TGI (NCI-H460 lung): 19.1 µM
- GI50 (NCI-H522 lung): 12.1 µM
- TGI (NCI-H522 lung): 27.1 µM
- GI50 (EKVX NSCLC): 16.1 µM
- TGI (EKVX NSCLC): 67.7 µM
- GI50 (KM12 colon): 12.6 µM
- TGI (KM12 colon): 33.2 µM
- GI50 (K-562 leukemia): 3.94 µM
- TGI (K-562 leukemia): 24.6 µM
- GI50 (MDA-MB-435): 3.78 µM
- TGI (MDA-MB-435): 17.1 µM
- GI50 (RXF 393 renal): 6.99 µM
- TGI (RXF 393 renal): 30.6 µM
- GI50 (CAKI-1 renal): 9.84 µM
- TGI (CAKI-1 renal): 38.8 µM
- GI50 (SNB-19 CNS): 15 µM
- TGI (SNB-19 CNS): > 100 µM
- GI50 (PC-3 prostate): 9.52 µM
- TGI (PC-3 prostate): 35.1 µM
- GI50 (SK-OV-3 ovarian): 17.3 µM
- TGI (SK-OV-3 ovarian): 43.3 µM
- GI50 (NCI/ADR-RES ovarian): 9.23 µM
- TGI (NCI/ADR-RES ovarian): 26.2 µM
- GI50 (RPMI-8226 leukemia): 4.05 µM
- TGI (RPMI-8226 leukemia): 27.4 µM
- GI50 (LOX IMVI melanoma): 3.14 µM
- TGI (LOX IMVI melanoma): 12.6 µM
- GI50 (HT29 colon): 3.63 µM
- TGI (HT29 colon): 20.9 µM
- GI50 (CCRF-CEM leukemia): 11.2 µM
- TGI (CCRF-CEM leukemia): 46.7 µM
- GI50 (HL-60(TB) leukemia): 3.01 µM
- TGI (HL-60(TB) leukemia): 18 µM
- GI50 (ACHN renal): 8.95 µM
- TGI (ACHN renal): 45 µM
- GI50 (SF-268 CNS): 14.3 µM
- TGI (SF-268 CNS): > 100 µM
- GI50 (A498 renal): 18 µM
- TGI (A498 renal): 64.6 µM
- GI50 (SR leukemia): 3.94 µM
- TGI (SR leukemia): 24 µM
- GI50 (SK-MEL-28 melanoma): 10.2 µM
- TGI (SK-MEL-28 melanoma): 22.5 µM
- GI50 (OVCAR-3 ovarian): 10.9 µM
- TGI (OVCAR-3 ovarian): 29.3 µM
- GI50 (U251 CNS): 13.6 µM
- TGI (U251 CNS): 46.5 µM
- GI50 (T-47D breast): 6.92 µM
- TGI (T-47D breast): 29.6 µM
- GI50 (COLO 205 colon): 5.99 µM
- TGI (COLO 205 colon): 21 µM
- GI50 (MCF7 breast): 10.4 µM
- TGI (MCF7 breast): 24.3 µM
- GI50 (UACC-257 melanoma): 13.4 µM
- TGI (UACC-257 melanoma): 28.2 µM
- GI50 (A549 NSCLC): 17 µM
- TGI (A549 NSCLC): > 100 µM
- GI50 (M14 melanoma): 7.17 µM
- TGI (M14 melanoma): 23.2 µM
- GI50 (BT-549 breast): 7.68 µM
- TGI (BT-549 breast): 20.1 µM
- GI50 (SN12C renal): 7.05 µM
- TGI (SN12C renal): 37.4 µM
- GI50 (OVCAR-8 ovarian): 13.1 µM
- TGI (OVCAR-8 ovarian): 30.5 µM
- GI50 (SW-620 colon): 3.93 µM
- TGI (SW-620 colon): 16.8 µM
- GI50 (786-0 renal): 9.15 µM
- TGI (786-0 renal): 24 µM
- GI50 (UACC-62 melanoma): 10.6 µM
- TGI (UACC-62 melanoma): 23.2 µM

Source: PubChem BioAssay (NCI)
